# Results: PubChem BioAssay (NCI)
#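 Grown in 96-well plates, cells were treated for 48 hours with each compound at five concentrations. Insufficient inhibition: endpoint recorded as highest concentration tested. Definition used: TGI = concentration required for complete inhibition of growth.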
# Assays:
# Experiment in all cases: DTP human tumour cell line panel, 48 h
# MDA-MB-435 = tested on: MDA-MB-435
# UO-31 renal = tested on: UO-31 renal
# T-47D breast = tested on: T-47D breast
# SNB-19 CNS = tested on: SNB-19 CNS
# HCT-15 colon = tested on: HCT-15 colon
# ACHN renal = tested on: ACHN renal
# MDA-MB-231 breast = tested on: MDA-MB-231 breast
# NCI-H23 lung = tested on: NCI-H23 lung
# HOP-92 NSCLC = tested on: HOP-92 NSCLC
# LOX IMVI melanoma = tested on: LOX IMVI melanoma
# TK-10 renal = tested on: TK-10 renal
# SW-620 colon = tested on: SW-620 colon
# SN12C renal = tested on: SN12C renal
# OVCAR-8 ovarian = tested on: OVCAR-8 ovarian
# IGROV1 ovarian = tested on: IGROV1 ovarian
# NCI/ADR-RES ovarian = tested on: NCI/ADR-RES ovarian
# BT-549 breast = tested on: BT-549 breast
# OVCAR-4 ovarian = tested on: OVCAR-4 ovarian
# EKVX NSCLC = tested on: EKVX NSCLC
# HL-60(TB) leukemia = tested on: HL-60(TB) leukemia
# DU-145 prostate = tested on: DU-145 prostate
# CAKI-1 renal = tested on: CAKI-1 renal
# U251 CNS = tested on: U251 CNS
# UACC-257 melanoma = tested on: UACC-257 melanoma
# HCT-116 colon = tested on: HCT-116 colon
# NCI-H460 lung = tested on: NCI-H460 lung
# A498 renal = tested on: A498 renal
# A549 NSCLC = tested on: A549 NSCLC
# SK-MEL-2 melanoma = tested on: SK-MEL-2 melanoma
# SK-MEL-5 melanoma = tested on: SK-MEL-5 melanoma
# MDA-N = tested on: MDA-N
# SF-539 CNS = tested on: SF-539 CNS
# 786-0 renal = tested on: 786-0 renal
# CCRF-CEM leukemia = tested on: CCRF-CEM leukemia
# MOLT-4 leukemia = tested on: MOLT-4 leukemia
# SR leukemia = tested on: SR leukemia
# SK-MEL-28 melanoma = tested on: SK-MEL-28 melanoma
# RPMI-8226 leukemia = tested on: RPMI-8226 leukemia
# HCC-2998 colon = tested on: HCC-2998 colon
# K-562 leukemia = tested on: K-562 leukemia
# RXF 393 renal = tested on: RXF 393 renal
# SF-268 CNS = tested on: SF-268 CNS
# M14 melanoma = tested on: M14 melanoma
# NCI-H522 lung = tested on: NCI-H522 lung
# HT29 colon = tested on: HT29 colon
# PC-3 prostate = tested on: PC-3 prostate
# KM12 colon = tested on: KM12 colon
# MALME-3M melanoma = tested on: MALME-3M melanoma
# NCI-H226 lung = tested on: NCI-H226 lung
# HS 578T breast = tested on: HS 578T breast
# OVCAR-5 ovarian = tested on: OVCAR-5 ovarian
# SNB-75 CNS = tested on: SNB-75 CNS
# COLO 205 colon = tested on: COLO 205 colon
# UACC-62 melanoma = tested on: UACC-62 melanoma
# MCF7 breast = tested on: MCF7 breast
# OVCAR-3 ovarian = tested on: OVCAR-3 ovarian
# SF-295 CNS = tested on: SF-295 CNS
# HOP-62 NSCLC = tested on: HOP-62 NSCLC
# SK-OV-3 ovarian = tested on: SK-OV-3 ovarian
compound,measurement,setting,value
CCN(CC)c1ccc(/C=C/C2=NN(c3cccc(S(=O)(=O)O)c3)C3(C2)SCC(=O)N3c2nc3ccccc3s2)cc1 (stereo not given),TGI,MDA-MB-435,47.2 µM
same,TGI,UO-31 renal,> 100 µM
same,TGI,T-47D breast,53.9 µM
same,TGI,SNB-19 CNS,> 100 µM
same,TGI,HCT-15 colon,> 100 µM
same,TGI,ACHN renal,> 100 µM
same,TGI,MDA-MB-231 breast,> 100 µM
same,TGI,NCI-H23 lung,> 100 µM
same,TGI,HOP-92 NSCLC,> 100 µM
same,TGI,LOX IMVI melanoma,> 100 µM
same,TGI,TK-10 renal,94 µM
same,TGI,SW-620 colon,> 100 µM
same,TGI,SN12C renal,> 100 µM
same,TGI,OVCAR-8 ovarian,> 100 µM
same,TGI,IGROV1 ovarian,> 100 µM
same,TGI,NCI/ADR-RES ovarian,> 100 µM
same,TGI,BT-549 breast,> 100 µM
same,TGI,OVCAR-4 ovarian,> 100 µM
same,TGI,EKVX NSCLC,> 100 µM
same,TGI,HL-60(TB) leukemia,80.3 µM
same,TGI,DU-145 prostate,75.7 µM
same,TGI,CAKI-1 renal,> 100 µM
same,TGI,U251 CNS,> 100 µM
same,TGI,UACC-257 melanoma,> 100 µM
same,TGI,HCT-116 colon,> 100 µM
same,TGI,NCI-H460 lung,> 100 µM
same,TGI,A498 renal,99 µM
same,TGI,A549 NSCLC,> 100 µM
same,TGI,SK-MEL-2 melanoma,> 100 µM
same,TGI,SK-MEL-5 melanoma,> 100 µM
same,TGI,MDA-N,> 100 µM
same,TGI,SF-539 CNS,> 100 µM
same,TGI,786-0 renal,> 100 µM
same,TGI,CCRF-CEM leukemia,55 µM
same,TGI,MOLT-4 leukemia,> 100 µM
same,TGI,SR leukemia,86.2 µM
same,TGI,SK-MEL-28 melanoma,> 100 µM
same,TGI,RPMI-8226 leukemia,66.8 µM
same,TGI,HCC-2998 colon,> 100 µM
same,TGI,K-562 leukemia,> 100 µM
same,TGI,RXF 393 renal,> 100 µM
same,TGI,SF-268 CNS,> 100 µM
same,TGI,M14 melanoma,> 100 µM
same,TGI,NCI-H522 lung,67.2 µM
same,TGI,HT29 colon,> 100 µM
same,TGI,PC-3 prostate,> 100 µM
same,TGI,KM12 colon,60.5 µM
same,TGI,MALME-3M melanoma,> 100 µM
same,TGI,NCI-H226 lung,> 100 µM
same,TGI,HS 578T breast,> 100 µM
same,TGI,OVCAR-5 ovarian,> 100 µM
same,TGI,SNB-75 CNS,> 100 µM
same,TGI,COLO 205 colon,81.1 µM
same,TGI,UACC-62 melanoma,> 100 µM
same,TGI,MCF7 breast,91.2 µM
N/C(=N\Nc1ccc(C(=O)O)cc1)c1cnccn1,TGI,MDA-MB-435,> 100 µM
same,TGI,UO-31 renal,> 100 µM
same,TGI,T-47D breast,> 100 µM
same,TGI,SNB-19 CNS,> 100 µM
same,TGI,HCT-15 colon,> 100 µM
same,TGI,ACHN renal,> 100 µM
same,TGI,MDA-MB-231 breast,> 100 µM
same,TGI,OVCAR-3 ovarian,> 100 µM
same,TGI,NCI-H23 lung,> 100 µM
same,TGI,HOP-92 NSCLC,> 100 µM
same,TGI,LOX IMVI melanoma,> 100 µM
same,TGI,TK-10 renal,> 100 µM
same,TGI,SW-620 colon,> 100 µM
same,TGI,SN12C renal,> 100 µM
same,TGI,OVCAR-8 ovarian,> 100 µM
same,TGI,IGROV1 ovarian,> 100 µM
same,TGI,SF-295 CNS,> 100 µM
same,TGI,NCI/ADR-RES ovarian,> 100 µM
same,TGI,BT-549 breast,> 100 µM
same,TGI,HOP-62 NSCLC,> 100 µM
same,TGI,OVCAR-4 ovarian,> 100 µM
same,TGI,EKVX NSCLC,> 100 µM
same,TGI,HL-60(TB) leukemia,0.166 µM
same,TGI,DU-145 prostate,> 100 µM
same,TGI,CAKI-1 renal,> 100 µM
same,TGI,U251 CNS,> 100 µM
same,TGI,UACC-257 melanoma,> 100 µM
same,TGI,HCT-116 colon,> 100 µM
same,TGI,NCI-H460 lung,> 100 µM
same,TGI,A498 renal,> 100 µM
same,TGI,A549 NSCLC,> 100 µM
same,TGI,SK-MEL-2 melanoma,> 100 µM
same,TGI,SK-MEL-5 melanoma,> 100 µM
same,TGI,MDA-N,> 100 µM
same,TGI,SF-539 CNS,> 100 µM
same,TGI,786-0 renal,> 100 µM
same,TGI,MOLT-4 leukemia,> 100 µM
same,TGI,SR leukemia,> 100 µM
same,TGI,SK-MEL-28 melanoma,> 100 µM
same,TGI,RPMI-8226 leukemia,> 100 µM
same,TGI,HCC-2998 colon,> 100 µM
same,TGI,K-562 leukemia,> 100 µM
same,TGI,RXF 393 renal,> 100 µM
same,TGI,SF-268 CNS,> 100 µM
same,TGI,M14 melanoma,> 100 µM
same,TGI,NCI-H522 lung,> 100 µM
same,TGI,HT29 colon,> 100 µM
same,TGI,PC-3 prostate,> 100 µM
same,TGI,KM12 colon,> 100 µM
same,TGI,MALME-3M melanoma,> 100 µM
same,TGI,NCI-H226 lung,> 100 µM
same,TGI,HS 578T breast,> 100 µM
same,TGI,OVCAR-5 ovarian,> 100 µM
same,TGI,SK-OV-3 ovarian,> 100 µM
same,TGI,SNB-75 CNS,> 100 µM
same,TGI,COLO 205 colon,> 100 µM
same,TGI,UACC-62 melanoma,> 100 µM
same,TGI,MCF7 breast,> 100 µM
COC(=O)C12C3C4C1C1C2C3C41C(=O)NC(C)(C)CC(=O)O (stereo not given),TGI,MDA-MB-435,> 100 µM
same,TGI,UO-31 renal,> 100 µM
same,TGI,T-47D breast,> 100 µM
same,TGI,SNB-19 CNS,> 100 µM
same,TGI,HCT-15 colon,> 100 µM
same,TGI,ACHN renal,> 100 µM
same,TGI,MDA-MB-231 breast,> 100 µM
same,TGI,OVCAR-3 ovarian,> 100 µM
same,TGI,NCI-H23 lung,> 100 µM
same,TGI,HOP-92 NSCLC,> 100 µM
same,TGI,LOX IMVI melanoma,> 100 µM
same,TGI,TK-10 renal,> 100 µM
same,TGI,SW-620 colon,> 100 µM
same,TGI,SN12C renal,> 100 µM
same,TGI,OVCAR-8 ovarian,> 100 µM
same,TGI,IGROV1 ovarian,> 100 µM
same,TGI,SF-295 CNS,> 100 µM
same,TGI,NCI/ADR-RES ovarian,> 100 µM
same,TGI,BT-549 breast,> 100 µM
same,TGI,HOP-62 NSCLC,> 100 µM
same,TGI,OVCAR-4 ovarian,> 100 µM
same,TGI,EKVX NSCLC,> 100 µM
same,TGI,HL-60(TB) leukemia,> 100 µM
same,TGI,DU-145 prostate,> 100 µM
same,TGI,CAKI-1 renal,> 100 µM
same,TGI,U251 CNS,> 100 µM
same,TGI,UACC-257 melanoma,> 100 µM
same,TGI,HCT-116 colon,> 100 µM
same,TGI,NCI-H460 lung,61 µM
same,TGI,A498 renal,> 100 µM
same,TGI,A549 NSCLC,> 100 µM
same,TGI,SK-MEL-2 melanoma,> 100 µM
same,TGI,SK-MEL-5 melanoma,> 100 µM
same,TGI,MDA-N,> 100 µM
same,TGI,SF-539 CNS,> 100 µM
same,TGI,786-0 renal,> 100 µM
same,TGI,CCRF-CEM leukemia,> 100 µM
same,TGI,MOLT-4 leukemia,> 100 µM
same,TGI,SR leukemia,> 100 µM
same,TGI,SK-MEL-28 melanoma,> 100 µM
same,TGI,RPMI-8226 leukemia,> 100 µM
same,TGI,HCC-2998 colon,> 100 µM
same,TGI,RXF 393 renal,> 100 µM
same,TGI,SF-268 CNS,> 100 µM
same,TGI,M14 melanoma,> 100 µM
same,TGI,NCI-H522 lung,> 100 µM
same,TGI,HT29 colon,> 100 µM
same,TGI,PC-3 prostate,> 100 µM
same,TGI,KM12 colon,> 100 µM
same,TGI,MALME-3M melanoma,> 100 µM
same,TGI,NCI-H226 lung,> 100 µM
same,TGI,HS 578T breast,> 100 µM
same,TGI,OVCAR-5 ovarian,> 100 µM
same,TGI,SNB-75 CNS,> 100 µM
same,TGI,COLO 205 colon,> 100 µM
same,TGI,UACC-62 melanoma,> 100 µM
same,TGI,MCF7 breast,> 100 µM
